The results in this text go back to ChEMBL document CHEMBL1201862, “PubChem BioAssay data set” (2004).

Test systems include BT-549; CCRF-CEM; SK-MEL-2; A498; U-251; HOP-92; EKVX; NCI/ADR-RES; OVCAR-4; TK-10; ACHN; NCI-H460; HCT-15; UO-31; K562; HT-29; SW-620; OVCAR-5; RPMI-8226.
Holding throughout (assay): DTP human tumour cell line panel, 48 h

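Exposure lasted 48 hours, with cells grown in 96-well plates and compounds tested at five concentrations. Abbreviation: GI50, concentration required for 50% inhibition of growth.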 Activity calls are given as the source filed them. Cut-off read from the data, not from the text of the source: active = GI50 up to about 1.1 µM and inactive = higher.

In the case of `C=C1C(=O)OC2CCN3CC=C(COC(=O)C(C)(O)C4(CO4)C1C)C23` (configuration not stated), the GI50 in the experiment with BT-549, in the experiment on CCRF-CEM, in the experiment with SK-MEL-2, in the experiment with A498, in the experiment on U-251 and in the experiment with HOP-92 was > 100 µM (inactive) each time. Further, the GI50 with EKVX, in the experiment with NCI/ADR-RES, in the experiment with OVCAR-4, in the experiment on TK-10, with ACHN and in the experiment with NCI-H460 was > 100 µM (inactive) each time. Moreover, the GI50 (usually the concentration at which growth is held to half of that of the control) is over 100 µM with HCT-15; > 100 µM (inactive) with UO-31; > 100 µM (inactive) in the experiment on K562; > 100 µM (inactive) in the experiment on HT-29; > 100 µM (inactive) in the experiment on SW-620.
On to `Oc1ccc(Oc2cc3c(cc2Oc2ccc(O)cc2)-c2nc-3nc3[nH]c(nc4nc(nc5[nH]c(n2)c2cc(Oc6ccc(O)cc6)c(Oc6ccc(O)cc6)cc52)-c2cc(Oc5ccc(O)cc5)c(Oc5ccc(O)cc5)cc2-4)c2cc(Oc4ccc(O)cc4)c(Oc4ccc(O)cc4)cc32)cc1`, for which the GI50 with BT-549, in the experiment with CCRF-CEM, in the experiment on U-251, with HOP-92, in the experiment with EKVX and in the experiment on NCI/ADR-RES was > 100 µM (inactive) in each case. Moreover, the GI50 is 35.7 µM (inactive) in the experiment on OVCAR-4; > 100 µM (inactive) in the experiment on TK-10; 85.5 µM (inactive) with OVCAR-5; > 100 µM (inactive) with ACHN; > 100 µM (inactive) in the experiment on NCI-H460; over 100 µM in the experiment on HCT-15. The GI50 with UO-31, in the experiment with K562, in the experiment on HT-29 and with SW-620 was > 100 µM (inactive) in each case.
Take `C1CSCCSCCCSC2CCCCC2SC1` (configuration not stated): the GI50 was > 100 µM (inactive) with BT-549; 45.4 µM (inactive) with RPMI-8226; > 100 µM (inactive) in the experiment with CCRF-CEM; > 100 µM (inactive) in the experiment on U-251; 34.4 µM (inactive) with HOP-92; > 100 µM (inactive) in the experiment on EKVX. Further, the GI50 was 83.9 µM (inactive) in the experiment on NCI/ADR-RES; > 100 µM (inactive) with OVCAR-4; > 100 µM (inactive) in the experiment on TK-10; > 100 µM (inactive) with OVCAR-5; > 100 µM (inactive) with NCI-H460; over 100 µM with HCT-15. Moreover, the GI50 was > 100 µM (inactive) with UO-31, 45 µM (inactive) with K562, 25.4 µM (inactive) in the experiment with HT-29 and > 100 µM (inactive) in the experiment on SW-620.
On to `Cc1ccc2c(=O)c(-c3n[nH]c(=S)s3)c[nH]c2n1`, for which the GI50 with BT-549, with RPMI-8226, with CCRF-CEM, in the experiment on SK-MEL-2, in the experiment on A498 and in the experiment with U-251 was > 100 µM (inactive) each time. Moreover, the GI50 with EKVX, in the experiment on NCI/ADR-RES, in the experiment with OVCAR-4, with TK-10, in the experiment on OVCAR-5 and with ACHN was > 100 µM (inactive) throughout. Further, the GI50 in the experiment on NCI-H460 was > 100 µM (inactive); in the experiment on HCT-15, over 100 µM; in the experiment on UO-31, > 100 µM (inactive); in the experiment with K562, > 100 µM (inactive); in the experiment with HT-29, > 100 µM (inactive); in the experiment with SW-620, > 100 µM (inactive).
On to `CC(C)(C)c1ccccc1N1C(=O)c2ccc3c4c(ccc(c24)C1=O)N(c1ccccc1C(C)(C)C)C3=O`, for which the GI50 in the experiment on BT-549 was > 100 µM (inactive); in the experiment on RPMI-8226, > 100 µM (inactive); in the experiment with CCRF-CEM, > 100 µM (inactive); in the experiment with SK-MEL-2 it was > 100 µM (inactive); in the experiment on U-251, > 100 µM (inactive); in the experiment on HOP-92 it was 6.43 µM (inactive). Further, the GI50 was 14.8 µM (inactive) in the experiment on EKVX; > 100 µM (inactive) in the experiment with NCI/ADR-RES; > 100 µM (inactive) in the experiment with OVCAR-4; > 100 µM (inactive) with OVCAR-5; > 100 µM (inactive) in the experiment on ACHN; > 100 µM (inactive) in the experiment with NCI-H460. Also, the GI50 in the experiment with HCT-15 is over 100 µM; in the experiment with UO-31, > 100 µM (inactive); with K562 it was > 100 µM (inactive); in the experiment on HT-29, > 100 µM (inactive); with SW-620 it was > 100 µM (inactive).
In the case of `COc1cc2[nH]c(=O)c3cc(C)cc4c(Cl)nc(c1OC)c2c43`, the GI50 in the experiment on BT-549 is 35 µM (inactive); in the experiment on RPMI-8226 it was 34.9 µM (inactive); with CCRF-CEM, 27.9 µM (inactive); in the experiment with SK-MEL-2, 32.9 µM (inactive); in the experiment with U-251 it was 38.6 µM (inactive); with HOP-92, 35.9 µM (inactive). The GI50 with EKVX was 18.1 µM (inactive); with NCI/ADR-RES it was > 100 µM (inactive); in the experiment on OVCAR-4, > 100 µM (inactive); with TK-10 it was 31.2 µM (inactive); in the experiment with OVCAR-5, > 100 µM (inactive); in the experiment with ACHN, 40.6 µM (inactive). Also, the GI50 in the experiment with NCI-H460 is 23.4 µM (inactive); in the experiment with HCT-15 it was over 100 µM; with UO-31, > 100 µM (inactive); with K562, 67.8 µM (inactive); with HT-29, 89.9 µM (inactive); in the experiment on SW-620 it was > 100 µM (inactive).
Turning to `C=C1C[C@@H]2O[C@H]3[C@H]4[C@@H](C[C@@H](C)[C@@H](OC(C)=O)[C@H]42)[C@@H](C)CO[C@@]3(C)[C@H](OC(C)=O)C[C@H]1O`, the GI50 is 63.4 µM (inactive) in the experiment with BT-549; 25.9 µM (inactive) with CCRF-CEM; > 100 µM (inactive) in the experiment on SK-MEL-2; > 100 µM (inactive) with A498; > 100 µM (inactive) in the experiment on U-251; 66.8 µM (inactive) in the experiment on HOP-92. The GI50 in the experiment with EKVX, in the experiment on NCI/ADR-RES, in the experiment on OVCAR-4, with TK-10, in the experiment with OVCAR-5 and with ACHN was > 100 µM (inactive) throughout. For the same molecule, the GI50 with NCI-H460 was 70.8 µM (inactive); in the experiment on HCT-15 it was over 100 µM; with UO-31, 77.6 µM (inactive); in the experiment with K562 it was 25.7 µM (inactive); with HT-29 it was 63.2 µM (inactive); with SW-620 it was 55.6 µM (inactive).
In the case of `O=C(NCP(=O)(Oc1ccccc1)Oc1ccccc1)OCc1ccccc1`, the GI50 in the experiment with BT-549 is > 100 µM (inactive); with RPMI-8226 it was > 100 µM (inactive); in the experiment on CCRF-CEM it was > 100 µM (inactive); with SK-MEL-2, > 100 µM (inactive); in the experiment with U-251 it was > 100 µM (inactive); in the experiment on HOP-92 it was 38.7 µM (inactive). Moreover, the GI50 in the experiment on EKVX is > 100 µM (inactive); with NCI/ADR-RES, > 100 µM (inactive); with OVCAR-4, 45.3 µM (inactive); with TK-10 it was > 100 µM (inactive); in the experiment on OVCAR-5, > 100 µM (inactive); in the experiment on ACHN, 80.5 µM (inactive). Also, the GI50 in the experiment on NCI-H460 was > 100 µM (inactive); in the experiment with HCT-15, over 100 µM; with UO-31 it was > 100 µM (inactive); in the experiment on K562, > 100 µM (inactive); with HT-29, > 100 µM (inactive); in the experiment on SW-620, > 100 µM (inactive).
Take `COc1cc(NC(C)CCCN)c2nccc(C)c2c1` (configuration not stated): the GI50 in the experiment on BT-549 is 15.8 µM (inactive); in the experiment with RPMI-8226, 20.9 µM (inactive); in the experiment with SK-MEL-2, 19.2 µM (inactive); in the experiment with U-251, 19.6 µM (inactive); in the experiment with HOP-92 it was 24.9 µM (inactive); with EKVX, 55.3 µM (inactive). The GI50 was 11.6 µM (inactive) in the experiment with NCI/ADR-RES; 21.8 µM (inactive) in the experiment with OVCAR-4; 26.8 µM (inactive) in the experiment with TK-10; 96.4 µM (inactive) with OVCAR-5; 26.6 µM (inactive) in the experiment on ACHN; 22.3 µM (inactive) with NCI-H460. Also, the GI50 is 21.3 µM in the experiment with HCT-15, 15.6 µM (inactive) in the experiment on UO-31 and 31.9 µM (inactive) in the experiment on HT-29.
In the case of `Cn1c(=O)oc2cc(C(O)CN3CCN(Cc4ccccn4)CC3)c(Cl)cc21` (configuration not stated), the GI50 with BT-549, in the experiment with CCRF-CEM, in the experiment with A498, in the experiment with U-251, in the experiment on HOP-92 and in the experiment with EKVX was > 100 µM (inactive) each time. The GI50 is 0.461 µM (active) in the experiment on NCI/ADR-RES; > 100 µM (inactive) in the experiment with OVCAR-4; > 100 µM (inactive) in the experiment with TK-10; > 100 µM (inactive) in the experiment with OVCAR-5; > 100 µM (inactive) with ACHN; > 100 µM (inactive) in the experiment with NCI-H460. Moreover, the GI50 is over 100 µM in the experiment with HCT-15; > 100 µM (inactive) with UO-31; > 100 µM (inactive) with K562; > 100 µM (inactive) with HT-29; > 100 µM (inactive) with SW-620.
As for `COC1=Nc2ccccc2S(=O)(=O)C=C1`, the GI50 is 6.75 µM (inactive) with BT-549; 0.342 µM (active) in the experiment on CCRF-CEM; 16.6 µM (inactive) with SK-MEL-2; 16.8 µM (inactive) in the experiment on A498; 11.4 µM (inactive) in the experiment with U-251; 4.81 µM (inactive) in the experiment with HOP-92. The GI50 in the experiment with EKVX was 7.69 µM (inactive); in the experiment on NCI/ADR-RES, 13.1 µM (inactive); in the experiment on OVCAR-4, 10.1 µM (inactive); in the experiment on TK-10, 2.75 µM (inactive); in the experiment on OVCAR-5 it was 16.9 µM (inactive); with ACHN, 3.07 µM (inactive). The GI50 in the experiment on NCI-H460 is 19 µM (inactive); in the experiment on HCT-15, 3.42 µM; in the experiment on UO-31, 5.46 µM (inactive); with HT-29 it was 9.89 µM (inactive); in the experiment on SW-620, 1.73 µM (inactive).
